Consider 19 compounds from patent US11472803B2, “7-substituted 1-aryl-naphthyridine-3-carboxylic acid amides and use thereof” (Bayer Aktiengesellschaft, priority 2016, dated 2022).

Counter-ions that a name gives are not always drawn.

For this experiment, the target named is T1, human M2 receptor (Homo sapiens, UniProt P08172).
T1 construct: expressed in transfected cells; host or cells: CHO-DUKX (CHO-DUKX-M2-GIRK)
T1 sequence (P08172 1-466): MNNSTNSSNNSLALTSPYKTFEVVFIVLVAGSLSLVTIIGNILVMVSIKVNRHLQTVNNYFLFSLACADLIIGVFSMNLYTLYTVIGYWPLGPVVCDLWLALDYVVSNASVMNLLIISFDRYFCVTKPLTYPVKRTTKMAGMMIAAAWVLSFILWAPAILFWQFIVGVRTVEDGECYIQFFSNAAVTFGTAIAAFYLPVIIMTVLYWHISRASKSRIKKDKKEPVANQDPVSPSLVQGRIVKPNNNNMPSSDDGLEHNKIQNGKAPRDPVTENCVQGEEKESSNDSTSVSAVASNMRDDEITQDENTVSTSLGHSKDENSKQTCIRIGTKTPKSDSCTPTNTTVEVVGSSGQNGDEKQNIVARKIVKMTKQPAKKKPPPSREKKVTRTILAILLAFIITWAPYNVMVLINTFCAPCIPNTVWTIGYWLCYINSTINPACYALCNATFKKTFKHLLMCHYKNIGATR
Description: Functional M2-GIRK1/4 activation test: allosteric potency (EC50) and efficiency at EC20 acetylcholine. It counts as cell-based. The note with it: CHO-DUKX-M2-GIRK cells; for EC50: voltage-sensitive dye, acetylcholine at EC20, in some cases mean of two or more determinations; for Emax: boosting of the acetylcholine effect at EC20 acetylcholine concentration. The method, boiled down: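 Positive allosteric modulation measured as boosting of an EC20 acetylcholine response: hyperpolarization via GIRK1/4 in CHO-DUKX-M2-GIRK cells, monitored by membrane-potential dye fluorescence over 60 s after agonist, compound preadded. Hill-function fit gives EC50 and efficiency.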

On to `CC(C)(NC(=O)c1cn(-c2c(F)cc(F)cc2F)c2nc(N3CCOCC3)c(F)cc2c1=O)C(F)F` [Example 150, N-(1,1-Difluoro-2-methylpropan-2-yl)-6-fluoro-7-(morpholin-4-yl)-4-oxo-1-(2,4,6-trifluoro-phenyl)-1,4-dihydro-1,8-naphthyridine-3-carboxamide], for which the EC50 (usually the concentration that produces a half-maximal response) was 24 nM and the Emax (as a rule, the size of the effect at its maximum, as opposed to the concentration needed) was found to be 93%.

`CC(NC(=O)c1cn(-c2c(F)cc(F)cc2F)c2nc(N3C[C@@H](O)[C@H](O)C3)c(Br)cc2c1=O)C(F)(F)C(F)(F)F` (stereo partly drawn) [Example 158, 6-Bromo-7-[(3R,4R)-3,4-dihydroxypyrrolidin-1-yl]-4-oxo-N-[3,3,4,4,4-pentafluorobutan-2-yl]-1-(2,4,6-trifluorophenyl)-1,4-dihydro-1,8-naphthyridine-3-carboxamide] had an EC50 of 3.7 nM and a maximum response (Emax) of 100%.

For the compound `O=C(N[C@@H](C1CC1)C(F)(F)F)c1cn(-c2c(F)cc(F)cc2F)c2nc(N3CCCC[C@H]3CO)c(F)cc2c1=O` [Example 58, N-[(1S)-1-Cyclopropyl-2,2,2-trifluoroethyl]-6-fluoro-7-[(2S)-2-(hydroxymethyl)piperidin-1-yl]-4-oxo-1-(2,4,6-trifluorophenyl)-1,4-dihydro-1,8-naphthyridine-3-carboxamide], the EC50 worked out at 104 nM and the Emax was determined as 90%.

`C[C@@H](NC(=O)c1cn(-c2c(F)cc(F)cc2Cl)c2nc(N3C[C@@H](O)[C@H](O)C3)c(F)cc2c1=O)C(F)(F)F` [Example 227, 1-(2-Chloro-4,6-difluorophenyl)-7-[(3R,4R)-3,4-dihydroxypyrrolidin-1-yl]-6-fluoro-4-oxo-N-[(2R)-1,1,1-trifluoropropan-2-yl]-1,4-dihydro-1,8-naphthyridine-3-carboxamide]: a half-maximal response (EC50) required 11 nM and the Emax worked out at 94%.

Compound `CCC(C)(C)NC(=O)c1cn(-c2c(F)cc(F)cc2F)c2nc(N3C[C@@H](O)[C@@H](O)C3)c(F)cc2c1=O` [Example 79, 7-[(3R,4S)-3,4-Dihydroxypyrrolidin-1-yl]-6-fluoro-N-(2-methylbutan-2-yl)-4-oxo-1-(2,4,6-tri-fluorophenyl)-1,4-dihydro-1,8-naphthyridine-3-carboxamide] registered an EC50 of 9.3 nM and an Emax of 99%.

As to `O=C(NC(C1CC1)C(F)(F)C(F)(F)F)c1cn(-c2c(F)cc(F)cc2F)c2nc(N3CC4(COC4)C3)c(F)cc2c1=O` (single isomer, unassigned) [Example 204, N-[1-cyclopropyl-2,2,3,3,3-pentafluoropropyl]-6-fluoro-7-(2-oxa-6-azaspiro[3.3]hept-6-yl)-4-oxo-1-(2,4,6-trifluorophenyl)-1,4-dihydro-1,8-naphthyridine-3-carboxamide], the EC50 is 17 nM and the Emax was 97%.

For `CC[C@H](NC(=O)c1cn(-c2c(F)cc(F)cc2Cl)c2nc(N3C[C@@H](O)[C@H](O)C3)c(F)cc2c1=O)C(F)(F)F` [Example 40, 1-(2-chloro-4,6-difluorophenyl)-7-[(3R,4R)-3,4-dihydroxypyrrolidin-1-yl]-6-fluoro-4-oxo-N-[(2S)-1,1,1-trifluorobutan-2-yl]-1,4-dihydro-1,8-naphthyridine-3-carboxamide], the EC50 is 2.3 nM and the maximal effect (Emax) worked out at 98%.

In the case of `CC(C)(C)C(NC(=O)c1cn(-c2c(F)cc(F)cc2F)c2nc(N3CC(CO)(CO)C3)c(F)cc2c1=O)C(F)(F)C(F)(F)F` (single isomer, unassigned) [Example 214, 7-[3,3-bis(hydroxymethyl)azetidin-1-yl]-6-fluoro-4-oxo-N-[1,1,1,2,2-pentafluoro-4,4-dimethylpentan-3-yl]-1-(2,4,6-trifluorophenyl)-1,4-dihydro-1,8-naphthyridine-3-carboxamide], the EC50 was 2.1 nM and the Emax was found to be 100%.

In the case of `O=C(N[C@@H](C1CC1)C(F)(F)F)c1cn(-c2c(F)cc(F)cc2Cl)c2nc(N3CC4(COC4)C3)c(F)cc2c1=O` [Example 68, 1-(2-Chloro-4,6-difluorophenyl)-N-[(1S)-1-cyclopropyl-2,2,2-trifluoroethyl]-6-fluoro-7-(2-oxa-6-azaspiro[3.3]hept-6-yl)-4-oxo-1,4-dihydro-1,8-naphthyridine-3-carboxamide trifluoroacetate], the concentration giving a half-maximal response (EC50) worked out at 32 nM and the Emax was found to be 92%.

With `CC(C)C(NC(=O)c1cn(-c2c(F)cc(F)cc2F)c2nc(N3C[C@@H](O)[C@@H](O)C3)c(F)cc2c1=O)C(F)(F)F` (mixture of isomers) [Example 123, 7-[(3R,4S)-3,4-Dihydroxypyrrolidin-1-yl]-6-fluoro-4-oxo-N-[1,1,1-trifluoro-3-methylbutan-2-yl]-1-(2,4,6-trifluorophenyl)-1,4-dihydro-1,8-naphthyridine-3-carboxamide], the EC50 turned out to be 3.1 nM and the Emax was 100%.

Consider `O=C(NC(C(F)(F)F)C(F)(F)F)c1cn(-c2c(F)cc(F)cc2F)c2nc(N3CCC(CO)(CO)CC3)c(F)cc2c1=O` [Example 191, 7-[4,4-bis(hydroxymethyl)piperidin-1-yl]-6-fluoro-N-(1,1,1,3,3,3-hexafluoropropan-2-yl)-4-oxo-1-(2,4,6-trifluorophenyl)-1,4-dihydro-1,8-naphthyridine-3-carboxamide], for which the EC50 worked out at 48 nM and the Emax was 100%.

Consider `CC[C@H](NC(=O)c1cn(-c2ncc(F)cc2F)c2nc(N3CC[C@H](O)C3)c(F)cc2c1=O)C(F)(F)F` [Example 152, 1-(3,5-Difluoropyridin-2-yl)-6-fluoro-7-[(3S)-3-hydroxypyrrolidin-1-yl]-4-oxo-N-[(2S)-1,1,1-trifluorobutan-2-yl]-1,4-dihydro-1,8-naphthyridine-3-carboxamide], for which a half-maximal effect (EC50) was put at 53 nM and the Emax was 100%.

In turn, `CCC(C)(CC)NC(=O)c1cn(-c2c(F)cc(F)cc2F)c2nc(N3C[C@@H](O)[C@H](O)C3)c(F)cc2c1=O` [Example 88, 7-[(3R,4R)-3,4-Dihydroxypyrrolidin-1-yl]-6-fluoro-N-(3-methylpentan-3-yl)-4-oxo-1-(2,4,6-trifluorophenyl)-1,4-dihydro-1,8-naphthyridine-3-carboxamide] registered an EC50 of 2.2 nM and an Emax of 100%.

`CCC(NC(=O)c1cn(-c2c(F)cc(F)cc2F)c2nc(N3CC(CO)(CO)C3)c(F)cc2c1=O)C(F)(F)C(F)(F)F` (racemic) [Example 171, 7-[3,3-Bis(hydroxymethyl)azetidin-1-yl]-6-fluoro-4-oxo-N-[1,1,1,2,2-pentafluoropentan-3-yl]-1-(2,4,6-trifluorophenyl)-1,4-dihydro-1,8-naphthyridine-3-carboxamide]: the EC50 is 1.3 nM and the Emax turned out to be 95%.

In the case of `CC(C)(NC(=O)c1cn(-c2c(F)cc(F)cc2F)c2nc(N3CC4(COC4)C3)c(F)cc2c1=O)C(F)(F)C(F)(F)F` (racemic) [Example 163, 6-Fluoro-7-(2-oxa-6-azaspiro[3.3]hept-6-yl)-4-oxo-N-(3,3,4,4,4-pentafluoro-2-methylbutan-2-yl)-1-(2,4,6-trifluorophenyl)-1,4-dihydro-1,8-naphthyridine-3-carboxamide], the EC50 came to 25 nM and the Emax worked out at 93%.

`CC[C@H](NC(=O)c1cn(-c2c(F)cccc2F)c2nc(N3C[C@@H](O)[C@H](O)C3)c(F)cc2c1=O)C(F)(F)F` [Example 3, 1-(2,6-Difluorophenyl)-7-[(3R,4R)-3,4-dihydroxypyrrolidin-1-yl]-6-fluoro-4-oxo-N-[(2S)-1,1,1-trifluorobutan-2-yl]-1,4-dihydro-1,8-naphthyridine-3-carboxamide] returned an EC50 of 38 nM and an Emax of 97%.

As to `O=C(N[C@@H](C1CC1)C(F)(F)F)c1cn(-c2c(F)cc(F)cc2F)c2nc(N3CCNCC3)c(F)cc2c1=O` [Example 81, N-[(1S)-1-Cyclopropyl-2,2,2-trifluoroethyl]-6-fluoro-4-oxo-7-(piperazin-1-yl)-1-(2,4,6-trifluorophenyl)-1,4-dihydro-1,8-naphthyridine-3-carboxamide], the response was half-maximal at 150 nM (EC50) and the maximal effect (Emax) came to 87%.

`CC(C)(NC(=O)c1cn(-c2c(F)cc(F)cc2F)c2nc(N3CCOCC3)c(F)cc2c1=O)C(F)(F)F` [Example 149, 6-Fluoro-7-(morpholin-4-yl)-4-oxo-N-(1,1,1-trifluoro-2-methylpropan-2-yl)-1-(2,4,6-trifluorophenyl)-1,4-dihydro-1,8-naphthyridine-3-carboxamide] had an EC50 of 21 nM and a maximum response (Emax) of 92%.

`O=C(NC(C(F)(F)F)C(F)(F)F)c1cn(-c2ncc(F)cc2F)c2nc(N3CCC(O)(CO)CC3)c(F)cc2c1=O` [Example 198, 1-(3,5-Difluoropyridin-2-yl)-6-fluoro-N-(1,1,1,3,3,3-hexafluoropropan-2-yl)-7-[4-hydroxy-4-(hydroxymethyl)piperidin-1-yl]-4-oxo-1,4-dihydro-1,8-naphthyridine-3-carboxamide] came in with an EC50 of 33 nM and a maximal effect (Emax) of 100%.
